The values below are quoted from earlier work in patent publication US20240122968A1, “ENHANCED NITRATE COMPOSITIONS AND METHODS OF USE” (ThermoLife International, LLC, priority 2019, published 2024).

Where two headings read alike, the source gives them in different places.

The series relates to blood pressure.

Regarding `[Zn]` [Zinc], for the setting “high doses”, the “effect on blood pressure” value is listed as “increase blood pressure”.

Regarding `[Ca+2]` [calcium], the “effect on blood pressure” value (even at doses of 1.5 g per day (Weinberger et al.)) is reported as “no notable effects on blood pressure”.
